Data on one compound can be found in PMC3407795 (EJNMMI Research, 2012).

Data set [1] in a line: Metabolism in blood (in vivo stability). The arrangement: species or system mouse. Particulars: healthy male Swiss albino mice, blood collected 5 min after iv injection (3 nmol), RP-HPLC radioanalysis. Here is the method:
The animals were kept for 5 min in cages with free access to water. They were sacrificed by cardiac puncture under ether anesthesia, and blood was withdrawn with a syringe and immediately placed in a pre-chilled EDTA-containing polypropylene vial on ice. Blood samples were centrifuged at 2,000 × g at 4 °C for 10 min.

The nature of data set [2]: Biodistribution in healthy mice. The format is in vivo. Particulars: male, mouse, 10 pmol total peptide, total radioactivity, healthy Swiss albino mice, iv 10 pmol; for tissue uptake at 4 h: 4 h pi. Here is the method:
In the in vivo receptor blockade animal group, excess Tate (50 nmol) was administered intravenously (iv) together with the radioligand. Animals were sacrificed in groups of four at 4- and 24-h time points post injection (pi). […] Tissue distribution data were calculated as percent injected dose per gram (%ID/g) applying a suitable algorithm.
The in vivo data presented as mean %ID/g ± SD (n ≥ 4) were statistically analyzed with Student’s t test (Prism^TM 2.01, GraphPad Software, San Diego, CA, USA). Analyses were 2-tailed, and a P value < 0.05 was considered statistically significant.

Where two headings read alike, the source gives them in different places.

Regarding `C[C@H](NC(=O)CN1CCN(CC(=O)O)CCN(CC(=O)O)CCN(CC(=O)O)CC1)C(=O)NCC(=O)N[C@H]1CSSC[C@@H](C(=O)O)NC(=O)[C@H](CO)NC(=O)[C@H]([C@@H](C)O)NC(=O)[C@H](Cc2ccccc2)NC(=O)[C@H]([C@@H](C)O)NC(=O)[C@H](CCCCN)NC(=O)[C@H](Cc2c[nH]c3ccccc23)NC(=O)[C@H](Cc2ccccc2)NC(=O)[C@H](Cc2ccccc2)NC(=O)[C@H](CC(N)=O)NC(=O)[C@H](CCCCN)NC1=O` [[^111In]AT1S, metal not drawn], the “intact radiopeptide detected in blood” value in data set [1] is reported as 2%. Further, the tissue uptake at 4 h in data set [2] (kidney, read-out: Kidney uptake) was 10.9 %ID/g; in data set [2] (pancreas, read-out: Pancreas uptake), under 0.5 %ID/g. Also, the tissue uptake at 24 h in data set [2] (kidney, 24 h pi) worked out at 6.6 %ID/g.
